The values below come from patent US20250188457A1, “COMPOSITIONS AND METHODS FOR THE TREATMENT OF GLIOBLASTOMA BY INHIBITION OF THE TFPI2-CD51-STAT6 SIGNALING AXIS” (Northwestern University, priority 2023, published 2025).

Assay [1] has as its system SIM-A9, HMC3 microglia and PrhMG. Put plainly: Flow cytometry for CD206 and ARG1 (microglia immunosuppressive polarization). The format is cell-based, human and mouse. The settings on record: TFPI2 recombinant protein 20 ng/ml. As to the method:
For membrane protein staining, the single-cell suspensions were washed with PBS and then incubated with fixable viability dye (Invitrogen, #5211229035) on ice for 10 min. Following washing with PBS, cells were incubated with the anti-CD16/CD32 cocktail (BioLegend, #103132) in 2% BSA PBS to block Fc receptors for 30 min on ice. Different antibody combinations, including Percp/Cy5.5 anti-mouse CD45 (BioLegend, #103132), AF488 anti-mouse CD3 (BioLegend, #100210), BV421 anti-mouse CX3CR1 (BD Bioscience, #567531), BUV395 anti-mouse CD4 (BD Bioscience, #740208), BV711 anti-mouse CD8 (BioLegend, #100747), PE/Cy7 anti-mouse/human CD11b (BioLegend, #101216), PE anti-mouse CD68 (BD Bioscience, #566386), PE anti-mouse PD1 (BioLegend, #135205), AF647 anti-mouse CD206 (BD Bioscience, #565250), AF647 anti-human CD206 (BioLegend, #321116), PE anti-human CD69 (BioLegend, #310906), PE/Cy7 anti-mouse CD69 (BioLegend, #104512), and BV650 anti-human HLA-DR (BioLegend, #307650) were added to cell suspensions for 30 min on ice. […] Samples were read in BD FACSymphony flow cytometer and analyzed in FlowJo v10.8.1.
Intracellular protein staining was performed separately or followed by cell surface marker staining. […] Then cell suspensions were rewashed in permeabilization buffer and read in BD FACSymphony flow cytometer.

Assay [2] has as its system PrhMG, HMC3 and SIM-A9 microglia. As to the kind of experiment: Transwell migration assay of microglia. The assay is classed as cell-based, human and mouse. To be noted: TFPI2 recombinant protein 20 ng/ml. As to the method: For transwell migration assay, HMC3 microglia, SIM-A9 microglia, and PrhMG were suspended in serum-free culture medium and seeded into transwell 24-well plates with permeable polycarbonate membrane inserts (5.0 μm, Corning, #07-200-149). GSC conditioned media (CM), or basal cell culture medium with TFPI2 recombinant protein (BioVision, #7481-10) were added to the remaining receiver wells. The STAT6 inhibitor AS151749 (Selleck Chemicals, #S8685) was used to study the role of STAT6 in microglia migration. The CD51 inhibitor MK-0429 (MedChemExpress, #HY-15102) was used to study the role of CD51 in TFPI2-induced microglia migration. After 10 hrs, the migrated microglia were fixed and stained with crystal violet (Sigma, #C-3886). The number of transferred cells was counted using ImageJ (NIH, Bethesda, […]).

The test system of assay [3] is SIM-A9 and HMC3 microglia. Put plainly: RT-qPCR for microglia marker expression. The format is cell-based, human and mouse. To be noted: TFPI2 recombinant protein 20 ng/ml. As to the method:
Cells were pelleted, and RNA was isolated with the RNeasy Mini Kit (Qiagen, #74106). RNA was quantified by NanoDrop spectrophotometers and then reverse-transcribed into cDNA by using the All-In-One 5×RT MasterMix (Applied Biological Materials, #G592) in T00 Thermal Cycler (Bio-Rad). RT-qPCR was performed using SYBR Green PCR Master Mix (Bio-Rad, #1725275) in CFX Connect Real-Time PCR Detection System (Bio-Rad). The expression of each gene was normalized to housekeeping genes.
(In general: Quantitative PCR measures a nucleic acid by following its amplification.)

For a further assay, the system named is HMC3 microglia. As to the kind of experiment: Incucyte live-cell and scratch wound healing migration of microglia. The format is cell-based, human. The settings on record: TFPI2 recombinant protein 20 ng/ml; AS1517499 25 nM. The procedure:
The scratch-wound assay was performed (Ref. 74; incorporated by reference in its entirety). For tracking single cell movement, microglia were cultured in 96-well plates (Corning, #3599) with different treatments. Incucyte Live Cell Analysis System was used to record cell movement over time. The time-lapse images were reconstructed and analyzed using TrackMate (Refs. 75-76; incorporated by reference in its entirety). The speed of each individual cell was calculated by processing images with LoG detector and Linear Assignment Problem (LAP) tracker.

The next assay concerns GSC23 and GSC262 cells. Put plainly: Tumorsphere formation assay (GSC self-renewal). The settings on record: GSC262 and GSC23; indicated concentrations. The assay is classed as cell-based, human. The procedure:
The tumorsphere formation assay was performed (Ref. 79; incorporated by reference in its entirety). GSCs were treated with different concentrations of recombinant TFPI2 protein for 24 hrs with or without inhibition of JNK or STAT3, or modified with TFPI21 KO, knockdown or overexpression. After treatment or genetic modifications, cells were centrifuged at 1500 rpm for 5 min and resuspended in the plain cell culture media without additional supplements. Cells were then seeded into a 96-wells plate at 100 cells/well. The number of tumorspheres in each well was imaged and quantified after 10 days.

`NC(=O)c1cnc(NCCc2ccc(O)c(Cl)c2)nc1NCc1ccccc1` [AS1517499]: in assay [1] (mouse and human microglia, AS1517499 25 nM), the “TFPI2-induced increase of immunosuppressive microglia (CD206 and ARG1 expression)” value is reported as “negated”. In assay [2] (AS1517499 at indicated concentrations), the “TFPI2-induced transwell migration of human and mouse microglia” value is “suppressed”. Besides, the “TFPI2-induced suppression of immunostimulatory microglia markers (MIF, IL23, CXCL11, IL6, TNFA, LFNG, HLA-DR)” value in assay [3] (AS1517499 25 nM) is listed as “countered”. Also, the “TFPI2-induced HMC3 microglia migration, incucyte live-cell and scratch assays” value with HMC3 microglia was “impairment”.

B1: TFPI2 recombinant protein (tissue factor pathway inhibitor 2; BioVision, #7481-10) (ligand, UniProt P48307 23-235, looked up)
chain: DAAQEPTGNNAEICLLPLDYGPCRALLLRYYYDRYTQSCRQFLYGGCEGNANNFYTWEACDDACWRIEKVPKVCRLQVSVDDQCEGSTEKYFFNLSSMTCEKFFSGGCHRNRIENRFPDEATCMGFCAPKKIPSFCYSPKDEGLCSANVTRYYFNPRYRTCDAFTYTGCGGNDNNFVSREDCKRACAKALKKKKKMPKLRFASRIRKIRKKQF
notes: Bought recombinant protein added to microglia at 20 ng/ml; also called recombinant TFPI2; secreted TFPI2
For B1, in assay [1], the “immunosuppressive microglia (CD206 and ARG1 expression)” value was “increased”. Besides, the “migration of microglia (SIM-A9, HMC3, PrhMG)” value in assay [2] is on record as “dramatically increased”. In assay [3], the “expression of immunostimulatory microglia markers (RT-qPCR)” value is reported as “suppressed”. Besides, in the assay on GSC23 and GSC262 cells, the “GSC self-renewal (tumorspheres) upon TFPI2 recombinant protein” value is given as “Enhanced”.
